Laboratory results: patent US20140364493A1, “METHOD OF INHIBITING REMNANT LIPOPROTEIN PRODUCTION” (Japan Tobacco Inc., priority 2003, published 2014)

Key:
[1] = test system: remnant lipoprotein production in plasma of healthy subject; assay: In vitro effect on remnant lipoprotein production in plasma (RLP-cholesterol JIMRO II); assay type: biochemical, human; settings: 37° C.
Method: Compound A, Compound B, Compound C and Compound D were previously dissolved in dimethyl sulfoxide (DMSO). Plasma (200 μL) of healthy subject, and a solution (2 μL) of each compound in DMSO or DMSO (2 μL) were added into a microtube. On the other hand, a monoclonal antibody against human CETP was diluted with physiological saline and added into a microtube together with plasma (190 μL) of healthy subject and a diluted solution (10 μL) of the monoclonal antibody or physiological saline (10 μL). […] After ice-cooling, the cholesterol amount in the remnant fraction was measured using “RLP-cholesterol “JIMRO II”” (manufactured by Japan Immunoresearch Laboratories Co., Ltd.). The difference in the measured values from incubation of solvent alone at 4° C. and 37° C., namely, an increase in the remnant cholesterol was taken as a 100% production amount of remnant lipoprotein, and the percent of decrease in the measured values of incubation at 37° C. with the addition of each compound or the antibody was taken as percent inhibition of remnant lipoprotein production.

[2] = test system: cholesteryl ester transfer from donor lipoprotein to remnant lipoprotein; assay: Cholesteryl ester transfer from donor lipoprotein ([3H]CE-HDL3) to remnant lipoprotein fraction in plasma; assay type: biochemical, human; settings: [3H]CE-HDL3-containing plasma, 37° C.
Method: (§1) Potassium bromide (KBr) was added to plasma (40 mL) of healthy subject and the mixture was adjusted to have a specific density d=1.125 g/mL. The mixture was subjected to density gradient centrifugation (227,000×g, 4° C., 17 hr) and a fraction showing a specific density of d>1.125 g/mL (HDL3 fraction) was harvested. The obtained fraction was dialyzed against PBS solution [10 mmol/L Na2HPO4; 10 mmol/L NaH2PO4; 0.15 mol/L NaCl; 1 mmol/L EDTA (pH 7.4)]. Then, tritium-labeled cholesterol (37 MBq) was dissolved in 95% ethanol, gradually added to the above-mentioned HDL3 fraction with stirring and incubated at 37° C. for 18 hr. [By this operation, tritium-labeled cholesterol was esterified by the action of lecithin cholesterol acyl transferase (LCAT) present on the HDL3 surface and taken up into HDL3 as tritium-labeled cholesteryl ester ([^3H]CE)]. After incubation, KBr was added, the mixture was adjusted to have a specific density d=1.21 g/mL, subjected to density gradient centrifugation (227,000×g, 4° C., 17 hr) and a fraction of specific density […] was harvested. The obtained fraction was dialyzed against the aforementioned PBS solution to give HDL3 incorporating [^3H]CE ([^3H]CE-HDL3, specific density: 1.125<d<1.21, specific activity: 22,000-33,000 dpm/μL), which was used as a donor lipoprotein.
The donor lipoprotein obtained above was added to the plasma of healthy subject to prepare a [^3H]CE-HDL3-containing plasma (2,000-4,000 dpm/μL). Compound A, Compound B, Compound C and Compound D were dissolved in dimethyl sulfoxide (DMSO). A solution of each compound in DMSO (1 μL) or DMSO (1 μL), and the [^3H]CE-HDL3-containing plasma (100 μL) were added into a microtube. On the other hand, the monoclonal antibody was diluted with physiological saline and added into a microtube together with a diluted solution (5 μL) of the monoclonal antibody or physiological saline (5 μL), and [^3H]CE-HDL3 containing plasma (95 μL). […] After ice-cooling, a remnant fraction was harvested using “RLP-cholesterol “JIMRO II”” (manufactured by Japan Immunoresearch Laboratories Co., Ltd.), and the radioactivity in the fraction was measured with a liquid scintillation counter. The difference in the measured values from incubation of solvent alone at 4° C. and 37° C. was taken as a 100% cholesteryl ester transfer activity, and the percent of decrease in the measured values of incubation at 37° C. with the addition of each compound or the antibody was taken as percent inhibition of cholesteryl ester transfer.

CETP = biological target: T1, CETP (Homo sapiens, UniProt P11597); assay: CETP activity in [3H]CE-HDL3-containing plasma (radioactivity in HDL fraction); assay type: biochemical; settings: 37° C.
T1 construct: added to the plasma of healthy subject to prepare a [^3H]CE-HDL3-containing plasma; from tissue; host or cells: plasma of healthy subject
T1 sequence (P11597 18-493): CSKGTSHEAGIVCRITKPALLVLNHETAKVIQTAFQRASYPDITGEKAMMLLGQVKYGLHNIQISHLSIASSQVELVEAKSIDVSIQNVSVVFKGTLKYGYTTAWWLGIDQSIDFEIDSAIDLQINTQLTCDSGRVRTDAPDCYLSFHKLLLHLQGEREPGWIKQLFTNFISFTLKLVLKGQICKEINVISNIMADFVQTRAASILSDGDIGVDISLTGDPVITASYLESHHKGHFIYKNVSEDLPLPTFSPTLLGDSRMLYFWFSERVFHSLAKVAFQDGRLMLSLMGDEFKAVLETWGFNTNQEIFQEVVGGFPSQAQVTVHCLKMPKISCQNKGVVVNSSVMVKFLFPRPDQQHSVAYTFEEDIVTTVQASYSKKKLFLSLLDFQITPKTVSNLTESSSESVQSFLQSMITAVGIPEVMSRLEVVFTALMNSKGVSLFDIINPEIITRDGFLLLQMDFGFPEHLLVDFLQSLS
Method: as §1
The donor lipoprotein obtained above was added to the plasma of healthy subject to prepare a [^3H]CE-HDL3-containing plasma (2,000-4,000 dpm/μL). […] A solution of each compound in DMSO (1 μL) or DMSO (1 μL), and the [^3H]CE-HDL3-containing plasma (100 μL) were added into a microtube. On the other hand, the monoclonal antibody was diluted with physiological saline and added into a microtube together with a diluted solution (5 μL) of the monoclonal antibody or physiological saline (5 μL), and [^3H]CE-HDL3 containing plasma (95 μL). […] After ice-cooling, a remnant fraction was harvested using “RLP-cholesterol “JIMRO II”” (manufactured by Japan Immunoresearch Laboratories Co., Ltd.), and the radioactivity in the fraction was measured with a liquid scintillation counter. The difference in the measured values from incubation of solvent alone at 4° C. and 37° C. was taken as a 100% cholesteryl ester transfer activity, and the percent of decrease in the measured values of incubation at 37° C. with the addition of each compound or the antibody was taken as percent inhibition of cholesteryl ester transfer.
The CETP activity was measured according to the method shown below using a part of the same plasma after incubation. After ice-cooling, plasma (80 μL) was separated and a TBS solution [80 μL, 20 mmol/L Tris; 0.15 mol/L NaCl (pH 7.4)] containing 50 mmol/L magnesium chloride and 0.1% dextran sulfate was added to each microtube and thoroughly stirred. After standing at 4° C. for 30 min, the mixture was centrifuged (10,000×g, 4° C., 10 min.), and the radioactivity in the obtained supernatant (HDL fraction) was measured with a scintillation counter. The difference in the measured values from incubation of solvent alone at 4° C. and 37° C. was taken as a 100% CETP activity, and the percent of decrease in the measured values of incubation at 37° C. with the addition of each compound or the antibody was taken as percent inhibition of CETP activity. The above results are shown in the following.

Structure (SMILES)	Inhibition (%) of remnant lipoprotein production ([1]; 0.01 μM, 4 hr) [%]	Inhibition (%) of remnant lipoprotein production ([1]; 0.03 μM, 4 hr) [%]	Inhibition (%) of remnant lipoprotein production ([1]; 0.1 μM, 4 hr) [%]	Inhibition (%) of remnant lipoprotein production ([1]; 0.3 μM, 4 hr) [%]	Inhibition (%) of remnant lipoprotein production ([1]; 1 μM, 4 hr) [%]	Inhibition (%) of cholesteryl ester transfer to remnant fraction ([2]; 0.01 μM, 4 hr) [%]	Inhibition (%) of cholesteryl ester transfer to remnant fraction ([2]; 0.03 μM, 4 hr) [%]	Inhibition (%) of cholesteryl ester transfer to remnant fraction ([2]; 0.1 μM, 4 hr) [%]	Inhibition (%) of cholesteryl ester transfer to remnant fraction ([2]; 0.3 μM, 4 hr) [%]	Inhibition (%) of cholesteryl ester transfer to remnant fraction ([2]; 1 μM, 4 hr) [%]	further results
CCC(CC)CC1(C(=O)Nc2ccccc2SC(=O)C(C)C)CCCCC1 [Compound A, S-{2-([[1-(2-ethylbutyl)cyclohexyl]carbonyl]amino)phenyl}2-methylpropanethioate]	–	–	–	–	–	–	–	–	–	–	Inhibition (%) of remnant lipoprotein production ([1]; 3 μM, 6 hr): 25%; Inhibition (%) of remnant lipoprotein production ([1]; 10 μM, 6 hr): 54%; Inhibition (%) of remnant lipoprotein production ([1]; 30 μM, 6 hr): 77%; Inhibition (%) of cholesteryl ester transfer to remnant fraction ([2]; 3 μM, 6 hr): 21%; Inhibition (%) of cholesteryl ester transfer to remnant fraction ([2]; 10 μM, 6 hr): 29%; Inhibition (%) of cholesteryl ester transfer to remnant fraction ([2]; 30 μM, 6 hr): 92%; Inhibition (%) of CETP activity (CETP; 3 μM, 6 hr): 3%; Inhibition (%) of CETP activity (CETP; 10 μM, 6 hr): 34%; Inhibition (%) of CETP activity (CETP; 30 μM, 6 hr): 75%
CCOC(=O)N1c2ccc(C(F)(F)F)cc2[C@@H](N(Cc2cc(C(F)(F)F)cc(C(F)(F)F)c2)C(=O)OC)C[C@H]1CC [Compound D, ethyl (2R,4S)-4-[[3,5-bis(trifluoromethyl)benzyl](methoxycarbonyl)amino]-2-ethyl-6-(trifluoromethyl)-3,4-dihydroquinoline-1(2H)-carboxylic acid ester]	38	32	44	59	62	12	28	54	78	94	–
CCN(CC1CCCC1)c1cc2c(cc1CN(Cc1cc(C#N)cc(C(F)(F)F)c1)C(=O)OC)CCC2 [Compound C, methyl (3-cyano-5-trifluoromethylbenzyl)-[6-(N-cyclopentylmethyl-N-ethylamino)indan-5-ylmethyl]-carbamate]	–	–	21	34	41	–	–	−25	9	35	Inhibition (%) of remnant lipoprotein production ([1]; 3 μM, 4 hr): 93%; Inhibition (%) of cholesteryl ester transfer to remnant fraction ([2]; 3 μM, 4 hr): 92%; inhibition at 0.1 µM (CETP; 0.1 μM, 4 hr): 6%; inhibition at 0.3 µM (CETP; 0.3 μM, 4 hr): 12%; inhibition at 1 µM (CETP; 1 μM, 4 hr): 31%; inhibition at 3 µM (CETP; 3 μM, 4 hr): 57%
CCN(C[C@H]1CC[C@H](CC(=O)O)CC1)c1cc(C)c(C(F)(F)F)cc1CN(Cc1cc(C(F)(F)F)cc(C(F)(F)F)c1)c1nnn(C)n1.CS(=O)(=O)O [Compound B, trans-(4-{[N-(2-{[N′-[3,5-bis(trifluoromethyl)benzyl]-N′-(2-methyl-2H-tetrazol-5-yl)amino]methyl}-5-methyl-4-trifluoromethylphenyl)-N-ethylamino]methyl}cyclohexyl)acetic acid methanesulfonate]	29	36	42	52	84	15	26	55	89	100	Inhibition (%) of CETP activity (CETP; 0.01 μM, 4 hr): 10%; Inhibition (%) of CETP activity (CETP; 0.03 μM, 4 hr): 25%; Inhibition (%) of CETP activity (CETP; 0.1 μM, 4 hr): 53%; Inhibition (%) of CETP activity (CETP; 0.3 μM, 4 hr): 74%; Inhibition (%) of CETP activity (CETP; 1 μM, 4 hr): 86%
